These results are taken from patent US20240000950A1, “THERAPEUTIC CURE-PRO COMPOUNDS FOR TARGETED DEGRADATION OF BET DOMAIN PROTEINS, AND METHODS OF MAKING AND USING THEM” (CORNELL UNIVERSITY, priority 2020, published 2024).

The structures appear in SMILES notation. Entries after “also recorded” stand apart in the source; their conditions may differ.

Assay type in all cases: cell-based
The target of test [1] is T1, BRD4 (Homo sapiens, UniProt O60885). Put plainly: CURE-PRO-mediated BRD4 degradation in HeLa cells, Western blot. The arrangement: endogenous in cells; host or cells: HeLa. The note with it: 24 h. The procedure: (§1) All cell lines were purchased from ATCC or DSMZ and grown at 37° C. with 5% C02. Human HeLa cells were cultured in complete growth medium (Dulbecco's modified Eagle's medium (DMEM) supplemented with 10% FBS); MCF7 cells were cultured in complete growth medium (Dulbecco's modified Eagle's medium (DMEM) supplemented with 10% FBS and 0.01 mg/ml human recombinant insulin (Sigma Aldrich); Namalwa and MOLM-13 cells were cultured in complete growth medium (RPMI 1640 medium supplemented with 10% FBS); MV-4-11 were cultured in complete growth medium (Iscove's Modified Dulbecco's medium, supplemented with 10% FBS); HCT116 cells were cultured in complete growth medium (McCoy's 5a Medium supplemented with 10% FBS). For cellular degradation of BRD4 studies, cells were seeded in a 12-well plate at 70-80% confluency, allowed to attach overnight, and incubated with the indicated compounds for the indicated time. When indicated, a 15-minute pretreatment with 10 μM pomalidomide, 10 μM VHL298, 10 μM Nutlin3a, 1 μM MG-132 or 1 μM Carfilzomib was performed before the addition of CURE-PROs. For washout studies, after CURE-PRO treatment, media was aspirated and incubated with complete medium for the indicated time before lysis.
Anti-BRD4 (13440, 1:1,000 dilution for Western Blot and 1:25 dilution for ProteinSimple); Anti-BRD2 (5848 1:1,000 dilution for Western Blot and 1:25 dilution for ProteinSimple); β-Actin (3700, 1:2,000 dilution for Western Blot), β-Actin (4970, 1:50 dilution for ProteinSimple) anti-mouse IgG-HRP, and anti-rabbit IgG-HRP antibodies were purchased Cell Signaling Technology. Anti-GAPDH (600-401-A33, 1:100 dilution for ProteinSimple) was purchased from Rockland Immunochemicals, Inc. Anti-BRD3 (sc-81202, 1:200 dilution for Western Blot) was purchased from Santa Cruz Biotechnology.
(§2) HeLa, MCF7, or HCT116 cells (2.5-3×10^6) were treated for 24 hours with the indicated compounds solubilized in DMSO. The cells were washed in ice-cold PBS and were then lysed in RIPA lysis buffer (150 mM NaCl, 5 mM EDTA, 1% NP-40, 0.5% sodium deoxycholate, 0.1% SDS, 50 mM Tris, pH 8.0) with Roche protease inhibitor complete cocktail and phosphatase inhibitors (10 mM sodium fluoride, 10 mM sodium pyrophosphate, 1 mM sodium orthovanadate and 20 mM β-glycerophosphate). The total protein concentrations were determined by Bradford Protein Assay and 10-20 μg of protein was loaded onto 4-15% Tris-Glycine gradient gels (Biorad). After standard gel electrophoresis, the separated proteins were transferred to PVDF membrane by wet transfer. The immunoblots were then blocked for 1 hour in 5% skim milk in TBST or 5% BSA in TBST, according to manufacturer's instructions, before an overnight incubation at 4° C. with indicated antibodies and membranes. Membranes were then incubated with the appropriate horseradish peroxidase-conjugated secondary antibodies (1:5,000 dilution) for 1 h at room temperature and the bands were visualized using the Clarity Max Western ECL Substrate (Biorad) and the ChemiDoc Imaging System (Biorad). Signal was detected with ECL Western Blotting Substrate (Pierce) and X-ray film processed with a Konica SRX-101 X-ray film processor or captured by Bio-Rad's Chemidoc Imaging system.
HeLa cells (2.5×10^6) were treated for 24 hours with the sample compounds solubilized in DMSO. Compounds were added at 1-10 μM each. Standardized protein samples were electrophoresed and imaged as described in the immunoblotting description above. FIGS. 6-18 depicts the CURE-PRO-mediated BRD4 degradation for BRD monomers (JQ1 derivatives comprising of catechol linkers), and CRBN ligands, 8048 and 8049 (pomalidomide derivatives comprising boronic acid linkers) combined in a 1:1 ratio.
HeLa cells (2.5×10^6) were treated for 24 hours with the compounds solubilized in DMSO. The compounds were added at 10 μM each. Standardized protein samples were electrophoresed and imaged as described in the immunoblotting section above. […]
(In western blotting, separated proteins are transferred to a membrane and probed.)

The target of test [2] is T1, BRD4. The test is described as follows: Summary of E3 ligase directed degradation of BRD4, estimated from Western Blot or WES (Tables 1-6). The arrangement: endogenous in cells; host or cells: HeLa, MCF7 or HCT116. The note with it: for Degradation of BRD4, combination with CRBN ligand [drawing 422] / Degradation of BRD4, combination with CRBN ligand [drawing 397] / Degradation of BRD4, combination with CRBN ligand [drawing 421]: Table 1; for Degradation of BRD4, combination with CRBN ligand [drawing 422]: CRBN ligand drawn as drawing 422 (by the text apparently 8066); for Degradation of BRD4, combination with CRBN ligand [drawing 397]: aromatic 1,2-diol- or hindered cis-1,2-diol-containing CRBN ligand drawn as drawing 397 (by the text apparently 8046); for Degradation of BRD4, combination with MDM2 ligand [drawing 431]: Table 2, aromatic 1,2-diol-containing MDM2 ligand drawn as drawing 431 (by the text apparently 8314); for Degradation of BRD4, combination with CRBN ligand [drawing 421]: CRBN ligand drawn as drawing 421 (by the text apparently 8047). The procedure:
as §2
WES Simple analysis was performed on WES system (ProteinSimple-Biotechne) according to the manufacturer's instructions. Total protein concentrations of cell lysates were determined by the Pierce BCA kit (Thermo Fisher). 3 μL of 0.3 μg/uL of the protein lysate was loaded onto a 12- to 230-kDa WES assay plate (ProteinSimple) where 300 nL sample was withdrawn through a capillary, subjected to electrophoretic separation of proteins by size, and followed by the simultaneous, HRP-based detection of proteins using the Anti-Rabbit Detection Module (Proteinsimple: #DM-001). The electropherograms were checked then the automatic peak detection was manually corrected if it was required.
A black check mark indicates efficacy of 30% to 70% or higher protein degradation.

The test system of another test is MV-4-11 cells. The test is described as follows: CellTiter-Glo cell viability, MV-4-11 cells. As for the experimental part: as §1
CellTiter-Glo® 2.0 Cell Viability Assay (Promega) was carried out following the manufacturer's recommendations. Cells were seeded at a density of 1000 cells/well in a white 96 well plates (Corning, #3917) in a total volume of 100 μl with respective monomers, combinations of BRD ligands together with E3 ligase ligands or vehicle control treatment. After a 72 h incubation, 100 ul of the CellTiter-Glo® substrate was added per well and luminescence was read on a Spectramax M5 (Molecular Devices). Dose-response curves were generated using Graphpad Prism software.
MV-4-11 cells (5×104) were treated for 24 hours with the sample compounds solubilized in DMSO. The compounds were added at 1 nM-100 μM each. Cellular viability was determined using the CellTiter-Glo® Luminescent Cell Viability Assay (Promega) described above. FIGS. 19-22 depict the CURE-PRO-mediated loss of cellular viability for BRD monomers (JQ1 derivatives comprising of catechol linkers), and CRBN ligand, 8049 (pomalidomide derivatives comprising boronic acid linkers) combined in a 1:1 ratio.
MV-4-11 cells (1×104) were treated for 72 hours with the compounds solubilized in DMSO. Compounds were added at 10 nM-100 μM each. Cellular viability was determined using the CellTiter-Glo® Luminescent Cell Viability Assay (Promega) described above. FIGS. 47-54 depict the CURE-PRO-mediated loss of cellular viability for BRD monomers (JQ1 derivatives comprising of boronic acid linkers), and CRBN ligands, 8046, 8047, and 8066 (pomalidomide derivatives comprising diol linkers) combined in a 1:1 ratio.

The mark [3] stands for this setting: 72 h, 10 nM-100 μM, cotreated 1:1 with each of CRBN ligands 8066, 8046 and 8047, compared to monomers alone.

Turning to `COc1ccc2c(c1)C(c1ccc(Cl)cc1)=N[C@@H](CC(=O)NCCCCCNC(=O)c1cccc(B(O)O)c1)c1nnc(C)n1-2` [BRD-E08], on BRD4 [1] (BRD ligand (monomer) alone), the BRD4 degradation result is on record as “no change in expression is observed”. On BRD4 [1] (co-treated 1:1 with CRBN ligand 8046, 10 μM each unless the value states a concentration, listed as BRD-E8), the BRD4 degradation result was “Degradation is observed at 100 nM and 1 μM”. On BRD4 [2], the “Degradation of BRD4, combination with CRBN ligand [drawing 422]” value (from here on “Degradation of BRD4 … [drawing 422]”) was “✓ (A black check mark indicates efficacy of 30% to 70% or higher protein degradation)”; the “Degradation of BRD4, combination with CRBN ligand [drawing 397]” value (“Degradation of BRD4 … [drawing 397]” below) is given as “✓ (A black check mark indicates efficacy of 30% to 70% or higher protein degradation)”; the “Degradation of BRD4, combination with MDM2 ligand [drawing 431]” value (from here on “Degradation of BRD4 … [drawing 431]”) is on record as “✓ (A black check mark indicates efficacy of 30% to 70% or higher protein degradation)”.

For the compound `CCNC(=O)C[C@@H]1N=C(c2ccc(Cl)cc2)c2cc(OCCNC(=O)c3cccc(B(O)O)c3)ccc2-n2c(C)nnc21` [BRD-E21, (3-((2-(((4S)-6-(4-chlorophenyl)-4-(2-(ethylamino)-2-oxoethyl)-1-methyl-4H-benzo[f][1,2,4]triazolo[4,3-a][1,4]diazepin-8-yl)oxy)ethyl)carbamoyl)phenyl)boronic acid], the BRD4 degradation result on BRD4 [1] (BRD ligand (monomer) alone) is recorded as “no change in expression is observed”. In addition, at BRD4 [2], the “Degradation of BRD4, combination with CRBN ligand [drawing 421]” value is on record as “✓ (A black check mark indicates efficacy of 30% to 70% or higher protein degradation)” and the “Degradation of BRD4 … [drawing 431]” value is reported as “✓ (A black check mark indicates efficacy of 30% to 70% or higher protein degradation)”.

For the compound `COc1ccc2c(c1)C(c1ccc(Cl)cc1)=N[C@@H](CC(=O)NCCNC(=O)/C=C/c1ccc(B(O)O)cc1)c1nnc(C)n1-2` [BRD-E29, (4-((E)-3-((2-(2-((4S)-6-(4-chlorophenyl)-8-methoxy-1-methyl-4H-benzo[f][1,2,4]triazolo[4,3-a][1,4]diazepin-4-yl)acetamido)ethyl)amino)-3-oxoprop-1-en-1-yl)phenyl)boronic acid], at BRD4 [2], the “Degradation of BRD4, combination with CRBN ligand [drawing 421]” value is listed as “✓ (A black check mark indicates efficacy of 30% to 70% or higher protein degradation)”; the “Degradation of BRD4 … [drawing 422]” value is reported as “✓ (A black check mark indicates efficacy of 30% to 70% or higher protein degradation)”; the “Degradation of BRD4 … [drawing 397]” value is given as “✓ (A black check mark indicates efficacy of 30% to 70% or higher protein degradation)”. In addition, the “toxicity / loss of cellular viability (CellTiter-Glo)” value (“toxicity / loss of cellular viability” below) in the test with MV-4-11 cells (setting [3]) is “reduced viability; also recorded: increased toxicity”.

As to `COc1ccc2c(c1)C(c1ccc(Cl)cc1)=N[C@@H](CC(=O)NCCOCCOCCNC(=O)c1cccc(B(O)O)c1)c1nnc(C)n1-2` [BRD-E46], on BRD4 [2], the “Degradation of BRD4 … [drawing 422]” value is “✓ (A black check mark indicates efficacy of 30% to 70% or higher protein degradation)” and the “Degradation of BRD4 … [drawing 397]” value is “✓ (A black check mark indicates efficacy of 30% to 70% or higher protein degradation)”. In the test with MV-4-11 cells (setting [3]), the “toxicity / loss of cellular viability” value is reported as “reduced viability; also recorded: increased toxicity”.

As for `CCNC(=O)C[C@@H]1N=C(c2ccc(Cl)cc2)c2cc(Sc3ccc(B(O)O)cc3)ccc2-n2c(C)nnc21` [BRD-E75, (4-(((4S)-6-(4-chlorophenyl)-4-(2-(ethylamino)-2-oxoethyl)-1-methyl-4H-benzo[f][1,2,4]triazolo[4,3-a][1,4]diazepin-8-yl)thio)phenyl)boronic acid], the “Degradation of BRD4 … [drawing 431]” value on BRD4 [2] is given as “✓ (A black check mark indicates efficacy of 30% to 70% or higher protein degradation)”. For the same compound, in the test on MV-4-11 cells (setting [3]), the “toxicity / loss of cellular viability” value is given as “reduced viability; also recorded: increased toxicity”.

As for `CCNC(=O)C[C@@H]1N=C(c2ccc(Cl)cc2)c2cc(Sc3cccc(B(O)O)c3)ccc2-n2c(C)nnc21` [BRD-E76], on BRD4 [2], the “Degradation of BRD4 … [drawing 397]” value was “✓ (A black check mark indicates efficacy of 30% to 70% or higher protein degradation)”. In addition, the “toxicity / loss of cellular viability” value in the test on MV-4-11 cells (setting [3]) is on record as “reduced viability; also recorded: increased toxicity”.

As for `CCNC(=O)C[C@@H]1N=C(c2ccc(Cl)cc2)c2cc(OCCCCCCCNC(=O)c3ccc(B(O)O)cc3)ccc2-n2c(C)nnc21` [BRD-E78], the “Degradation of BRD4, combination with VHL ligand [drawing 442]” value at BRD4 [2] (Table 3, aromatic 1,2-diol-containing VHL ligand drawn as drawing 442 (by the text apparently 8305)) is listed as “✓ (A black check mark indicates efficacy of 30% to 70% or higher protein degradation)”. In the test with MV-4-11 cells (setting [3]), the “toxicity / loss of cellular viability” value was “reduced viability; also recorded: increased toxicity”.

Regarding `COc1ccc2c(c1)C(c1ccc(Cl)cc1)=N[C@@H](CC(=O)NCCc1ccc(O)c(O)c1)c1nnc(C)n1-2` [BRD-N10, (S)-2-(6-(4-chlorophenyl)-8-methoxy-1-methyl-4H-benzo[f][1,2,4]triazolo[4,3-a][1,4]diazepin-4-yl)-N-(3,4-dihydroxyphenethyl)acetamide], the “Degradation of BRD4, combination with CRBN ligand [drawing 457]” value on BRD4 [2] (Table 4, aryl-boronic acid-containing CRBN ligand drawn as drawing 457 (by the text apparently 8048)) is on record as “✓ (A black check mark indicates efficacy of 30% to 70% or higher protein degradation)”. Also, at BRD4 [2] (Table 4, aryl-boronic acid-containing CRBN ligand drawn as drawing 458 (by the text apparently 8049)), the “Degradation of BRD4, combination with CRBN ligand [drawing 458]” value was “✓ (A black check mark indicates efficacy of 30% to 70% or higher protein degradation)”. For the same compound, the “Degradation of BRD4, combination with MDM2 ligand [drawing 463]” value at BRD4 [2] (Table 5, aryl-boronic acid-containing MDM2 ligand drawn as drawing 463 (apparently 8310)) is “✓ (A black check mark indicates efficacy of 30% to 70% or higher protein degradation)”. Also, the “toxicity / loss of cellular viability” value in the test with MV-4-11 cells (1 nM-100 μM, cotreated 1:1 with CRBN ligand 8049) is “a concentration-dependent loss in cellular viability was observed; also recorded: increased toxicity”.
